The values that follow come from DBAASP.

A word on the MIC: it is the least concentration at which growth counts as inhibited. Read a low MIC as greater potency.

Values after ≈ are worked out from the molar mass of the structure shown. Values joined by “and” are separate entries in the source; they are usually repeats but may differ in a detail not shown here. Identical values can stand only once.

Assay in all cases: ≥ marks a high value that may be exact or a test limit, other limits are often not marked, values filed in µg/mL are converted to µM
The subject of test [1] is Staphylococcus aureus ΔmprF.
The test system of test [2] is Acinetobacter baumannii ATCC 19606.
Test [3] has as its system Pseudomonas aeruginosa CUN 4158-02.
The test system of test [4] is Bordetella bronchiseptica CUN 11844-99.
The subject of test [5] is Staphylococcus aureus ATCC 43300.
Test [6] deals with Staphylococcus aureus ΔmprFpRBsyn.
The test system of test [7] is Brucella abortus 9.49 (per-).
The subject of test [8] is Staphylococcus aureus.
The test system of test [9] is Yersinia pestis KIM pYV.
In test [10] the test system is Escherichia coli ATCC 25922.
Test [11] deals with Candida albicans TIMM 0144.
Test [12] relates to Staphylococcus aureus JCM 2151.
For test [13], the system named is Trichophyton mentagrophytes TIMM 1189.
Test [14] has as its system Fusarium graminearum.
The subject of test [15] is Bacillus licheniformis X39.
Test [16] relates to Staphylococcus aureus ATCC 2592.
In test [17] the test system is Staphylococcus carnosus KHS.
Test [18] concerns Rhodococcus rhodochrous X15.
For test [19], the system named is Yersinia enterocolitica ATCC 23715.
Test [20] relates to Bacillus subtilis ATCC 6633.
The test system of test [21] is Acinetobacter baumannii.
The subject of test [22] is Escherichia coli ATCC 33694.
The subject of test [23] is Acinetobacter baumannii KCTC 2508.
Test [24] deals with Enterobacter cloacae ATCC 23355.
Test [25] concerns Staphylococcus saprophyticus.
In test [26] the test system is Bacillus subtilis CCT 2471.
For test [27], the system named is Klebsiella pneumoniae ATCC 13883.
The test system of test [28] is Staphylococcus aureus ATCC 6535.
Test [29] concerns Candida albicans.
Test [30] relates to Pseudomonas aeruginosa ATCC 27853.
Test [31] has as its system Escherichia coli CCT 1371.
Test [32] has as its system Fusarium haematococcum 160.2.2.
For test [33], the system named is Neurospora crassa CBS 327-54.

With `CC[C@H](C)[C@H](NC(=O)[C@H](CCCN=C(N)N)NC(=O)[C@H](CCCN=C(N)N)NC(=O)[C@H](CC(C)C)NC(=O)[C@H](Cc1ccccc1)NC(=O)[C@@H](NC(=O)[C@H](CCCN=C(N)N)NC(=O)[C@H](CCSC)NC(=O)[C@@H](NC(=O)[C@H](CCCCN)NC(=O)[C@H](CCCCN)NC(=O)[C@H](CO)NC(=O)[C@@H](NC(=O)[C@@H](N)CCCCN)[C@@H](C)CC)[C@@H](C)CC)[C@@H](C)O)C(=O)N[C@@H](CO)C(=O)N[C@@H](CCCCN)C(=O)N[C@@H](CC(=O)O)C(=O)N[C@H](C(=O)N[C@@H](CC(C)C)C(=O)N[C@H](C(=O)NCC(=O)N[C@@H](CCCCN)C(=O)N[C@@H](CCCCN)C(N)=O)[C@@H](C)O)[C@@H](C)CC` [KISKKIMRTFLRRISKDILTGKK], the MIC in test [1] was 1.45 µM (≈ 4 µg/mL); in [2], 1.45 µM (≈ 4 µg/mL); in [3], 1.45 µM (≈ 4 µg/mL); in [4], 0.362 µM (≈ 1 µg/mL); in test [5], above 92.7 µM; in [6], 1.45 µM (≈ 4 µg/mL). The MIC is 0.724 µM (≈ 2 µg/mL) in [7], 11.6 µM (≈ 32 µg/mL) in test [8], at least 46.4 µM in [9] and 1.45 µM (≈ 4 µg/mL) in [10].
`CC(=O)N[C@@H](CCCN=C(N)N)C(=O)N[C@@H](CCCN=C(N)N)C(=O)N[C@@H](Cc1c[nH]c2ccccc12)C(=O)N[C@@H](Cc1c[nH]c2ccccc12)C(=O)N[C@@H](CS)C(=O)N[C@@H](CCCN=C(N)N)C(N)=O` [RRWWCR]: the MIC was at least 52 µM in test [11]; 26 µM and 12.5 µM in test [12]; 6.24 µM (≈ 6.26 µg/mL) in [13].
Molecule `NC(=O)C[C@H](NC(=O)CNC(=O)[C@H](Cc1ccccc1)NC(=O)[C@@H](N)Cc1c[nH]c2ccccc12)C(=O)N[C@@H](CS)C(=O)NCC(=O)N[C@@H](CC(N)=O)C(=O)N1CCC[C@H]1C(=O)N[C@@H](CCCN=C(N)N)C(=O)N[C@@H](Cc1cnc[nH]1)C(=O)N[C@@H](CS)C(=O)NCC(=O)O` [WFGNCGNPRHCG] showed an MIC in test [14] of at least 70 µM.
Consider `CC[C@H](C)[C@H](NC(=O)[C@H](CC(C)C)NC(=O)CNC(=O)[C@H](C)NC(=O)[C@H](CC(C)C)NC(=O)[C@@H](N)Cc1ccccc1)C(=O)NCC(=O)NCC(=O)N[C@@H](CC(C)C)C(=O)N[C@@H](C)C(=O)N[C@@H](CCCCN)C(=O)N[C@@H](CCSC)C(=O)N[C@@H](CC(C)C)C(N)=O` [FLAGLIGGLAKML], for which the MIC stood at 19 µM (≈ 24.8 µg/mL) in [15], 9.5 µM (≈ 12.4 µg/mL) in test [16], 9.5 µM (≈ 12.4 µg/mL) in [17] and 4.8 µM (≈ 6.25 µg/mL) in test [18].
For `CC[C@H](C)[C@H](NC(=O)[C@@H]1CCCN1C(=O)[C@H](CC(N)=O)NC(=O)[C@H](Cc1cnc[nH]1)NC(=O)[C@@H](NC(=O)[C@@H]1CCCN1C(=O)[C@H](C)NC(=O)[C@H](CC(C)C)NC(=O)[C@@H]1CCCN1C(=O)[C@H](CCC(N)=O)NC(=O)[C@@H](NC(=O)[C@@H](NC(=O)[C@@H]1CCCN1C(=O)[C@@H](N)Cc1ccc(O)cc1)C(C)C)[C@@H](C)O)C(C)C)C(=O)N[C@@H](CO)C(=O)O` [YPVTQPLAPVHNPIS], the MIC is 3.83 µM (≈ 6.25 µg/mL) in test [19] and 1.91 µM (≈ 3.13 µg/mL) in test [10].
Consider `CC[C@H](C)[C@H](NC(=O)CNC(=O)[C@@H](NC(=O)[C@H](CCCCN)NC(=O)[C@H](CCCCN)NC(=O)[C@H](Cc1ccccc1)NC(=O)[C@H](CC(C)C)NC(=O)[C@H](CCCCN)NC(=O)[C@H](Cc1c[nH]c2ccccc12)NC(=O)[C@@H](N)CCCCN)[C@@H](C)CC)C(=O)NCC(=O)N[C@@H](C)C(=O)N[C@H](C(=O)N[C@@H](CC(C)C)C(=O)N[C@@H](CCCCN)C(=O)N[C@H](C(=O)N[C@@H](CC(C)C)C(=O)N[C@H](C(=O)N[C@H](C(=O)NCC(N)=O)[C@@H](C)O)[C@@H](C)O)C(C)C)C(C)C` [KWKLFKKIGIGAVLKVLTTG], for which the MIC in test [20] stood at 1.1 µM (≈ 2.43 µg/mL); in test [21], 4.42 µM (≈ 9.71 µg/mL); in test [22], 8.84 µM (≈ 19.4 µg/mL); in test [23] it was 3.12 µM (≈ 6.86 µg/mL).
Regarding `CC[C@H](C)[C@H](NC(=O)[C@H](CO)NC(=O)[C@@H](NC(=O)[C@H](CCCCN)NC(=O)[C@H](Cc1ccccc1)NC(=O)[C@@H]1CCCN1C(=O)[C@@H](N)[C@@H](C)O)[C@@H](C)CC)C(=O)N[C@@H](Cc1cnc[nH]1)C(=O)N[C@@H](CC(C)C)C(N)=O` [TPFKISIHL], the MIC is 14.2 µM (≈ 15 µg/mL) in test [24]; 9.48 µM (≈ 9.99 µg/mL) in test [25]; 28.4 µM (≈ 30 µg/mL) in [26]; 14.2 µM (≈ 15 µg/mL) in [27]; 14.2 µM (≈ 15 µg/mL) in test [28]; 2.37 µM (≈ 2.5 µg/mL) in [29]. Further, the minimum inhibitory concentration (MIC) in test [30] and in test [31] was 14.2 µM (≈ 15 µg/mL) each time.
For the molecule `CC[C@H](C)[C@H](NC(=O)[C@H](CCCN=C(N)N)NC(=O)[C@H](CCC(=O)O)NC(=O)[C@H](CC(=O)O)NC(=O)CNC(=O)[C@H](CCCN=C(N)N)NC(=O)[C@H](CC(C)C)NC(=O)[C@@H](N)[C@@H](C)O)C(=O)N[C@@H](CC(C)C)C(=O)N[C@@H](CO)C(=O)N[C@H](C(=O)N[C@@H](CC(C)C)C(=O)N[C@@H](CCCN=C(N)N)C(=O)N[C@@H](Cc1cnc[nH]1)C(=O)N[C@@H](CCC(N)=O)C(=O)N[C@@H](CC(N)=O)C(=O)N[C@@H](CC(C)C)C(=O)N[C@@H](CC(C)C)C(=O)N[C@@H](CCCCN)C(=O)N[C@@H](CCC(=O)O)C(=O)O)[C@@H](C)CC` [TLRGDERILSILRHQNLLKE], the MIC in [32] was 30 µM (≈ 72.1 µg/mL); in [33], at least 100 µM.
